Source: US9573987B2 (priority 2011, dated 2017)

What was measured:
[1] = molecular target: T1, IGF-1 receptor (Homo sapiens, UniProt P08069); test: IGF-1 receptor phosphorylation assay, receptor transfected HEK293 cells; assay type: cell-based; design: expressed in transfected cells; host or cells: HEK293
Experimental: Color development was stopped 5 min later by adding 0.05 ml 1 N HCl. Absorbance at 450 nm was measured on Titertek Multiscan MCC340 (ThermoFisher, Pittsburgh, Pa.).

[2] = molecular target: insulin receptor (Homo sapiens, UniProt P06213); test: Insulin receptor binding assay (competition, scintillation proximity); design: expressed in transfected cells; plasma membrane fragments; details: Table 9
[3] = molecular target: T1, IGF-1 receptor; test: IGF-1 receptor binding assay (competition, scintillation proximity); design: expressed in transfected cells; plasma membrane fragments; details: Table 9
[4] = molecular target: T2, insulin subtype A receptor (IR-A) (Homo sapiens, UniProt P06213); test: Insulin subtype A receptor phosphorylation, receptor transfected HEK293 cells; assay type: cell-based; details: for IC50: read-out: Phosphorylation at Insulin Receptor Subtype A (IC50), Table 16A
T2 construct: expressed in transfected cells; host or cells: HEK293
Experimental: (§1) Color development was stopped 5 min later by adding 0.05 ml 1 N HCl. Absorbance at 450 nm was measured on Titertek Multiscan MCC340 (ThermoFisher, Pittsburgh, Pa.). […]

[5] = molecular target: insulin subtype B receptor (IR-B) (Homo sapiens, UniProt P06213); test: Insulin subtype B receptor phosphorylation, receptor transfected HEK293 cells; assay type: cell-based; design: expressed in transfected cells; host or cells: HEK293; details: read-out: Phosphorylation at Insulin Receptor Subtype B (IC50); Table 16B
Experimental: as §1

T1 sequence (P08069 31-736 limits assumed): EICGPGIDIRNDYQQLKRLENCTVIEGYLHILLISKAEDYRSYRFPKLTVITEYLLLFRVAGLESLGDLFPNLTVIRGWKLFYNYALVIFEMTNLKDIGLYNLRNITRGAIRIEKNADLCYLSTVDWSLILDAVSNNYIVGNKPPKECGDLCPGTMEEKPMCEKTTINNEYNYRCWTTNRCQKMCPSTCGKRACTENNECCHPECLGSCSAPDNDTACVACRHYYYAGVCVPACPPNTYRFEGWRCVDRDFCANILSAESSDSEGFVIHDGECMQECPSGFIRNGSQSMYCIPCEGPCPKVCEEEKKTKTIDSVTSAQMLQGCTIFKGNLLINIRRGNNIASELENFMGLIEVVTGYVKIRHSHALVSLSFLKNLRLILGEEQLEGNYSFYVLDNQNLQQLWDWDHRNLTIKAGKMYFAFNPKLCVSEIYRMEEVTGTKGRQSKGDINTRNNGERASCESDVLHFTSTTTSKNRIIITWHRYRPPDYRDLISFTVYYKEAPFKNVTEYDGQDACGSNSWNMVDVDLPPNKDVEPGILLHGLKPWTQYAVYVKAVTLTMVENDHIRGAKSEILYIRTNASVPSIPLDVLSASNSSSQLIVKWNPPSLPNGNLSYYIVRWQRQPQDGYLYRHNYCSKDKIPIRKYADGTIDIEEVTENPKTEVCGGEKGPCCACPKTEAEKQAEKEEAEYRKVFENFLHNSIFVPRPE
T1 sequence (P08069 741-1367 partner limits assumed): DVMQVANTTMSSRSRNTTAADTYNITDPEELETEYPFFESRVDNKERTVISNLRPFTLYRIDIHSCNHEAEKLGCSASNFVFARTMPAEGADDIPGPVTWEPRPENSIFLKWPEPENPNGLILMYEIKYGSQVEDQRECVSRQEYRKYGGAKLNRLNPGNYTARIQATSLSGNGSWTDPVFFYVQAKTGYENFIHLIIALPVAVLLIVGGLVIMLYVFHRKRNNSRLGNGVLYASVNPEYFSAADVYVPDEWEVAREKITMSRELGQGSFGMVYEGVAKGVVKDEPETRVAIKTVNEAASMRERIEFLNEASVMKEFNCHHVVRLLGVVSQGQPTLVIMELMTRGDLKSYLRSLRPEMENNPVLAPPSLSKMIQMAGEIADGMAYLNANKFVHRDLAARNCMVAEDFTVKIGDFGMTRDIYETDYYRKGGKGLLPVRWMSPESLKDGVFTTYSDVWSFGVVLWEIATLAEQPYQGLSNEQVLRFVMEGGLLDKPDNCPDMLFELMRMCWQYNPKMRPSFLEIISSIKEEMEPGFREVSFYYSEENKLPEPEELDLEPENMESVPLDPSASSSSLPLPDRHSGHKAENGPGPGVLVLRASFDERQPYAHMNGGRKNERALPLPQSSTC

Row | IC50 [4] | IC50 [5] | Molecule | Insulin Receptor % insulin (in test) [2] | further results
1 |  |  | CC[C@H](C)[C@H](NC(=O)CN)C(=O)N[C@H](C(=O)N[C@@H](CC(=O)O)C(=O)N[C@@H](CCC(=O)O)C(=O)N[C@H]1CSSC[C@@H]2NC(=O)[C@H](CO)NC(=O)[C@H](C)NC(=O)[C@H](Cc3c[nH]cn3)NC(=O)[C@H](CSSC[C@H](NC(=O)[C@H](CC(C)C)NC(=O)[C@H](Cc3c[nH]cn3)NC(=O)[C@H](CCC(=O)O)NC(=O)[C@@H]3CCCN3C(=O)CN)C(=O)NCC(=O)N[C@@H](C)C(=O)N[C@@H](CC(=O)O)C(=O)N[C@@H](CC(C)C)C(=O)N[C@@H](C(C)C)C(=O)N[C@@H](CC(=O)O)C(=O)N[C@@H](C)C(=O)N[C@@H](CC(C)C)C(=O)N[C@@H](Cc3ccc(O)cc3)C(=O)N[C@@H](CC(C)C)C(=O)N[C@@H](C(C)C)C(=O)N[C@H](C(=O)NCC(=O)N[C@@H](CC(=O)O)C(=O)N[C@@H](C)C(=O)NCC(=O)N[C@@H](Cc3ccccc3)C(=O)N[C@@H](Cc3ccc(O)cc3)C(N)=O)CSSC[C@@H](C(=O)N[C@@H](CC(N)=O)C(=O)O)NC(=O)[C@H](Cc3ccc(O)cc3)NC(=O)[C@H](CCSC)NC(=O)[C@H](CCC(=O)O)NC(=O)[C@H](CC(C)C)NC(=O)[C@H](CCCNC(=N)N)NC(=O)[C@H](CCCNC(=N)N)NC(=O)[C@H](CC(C)C)NC(=O)[C@H](CC(=O)O)NC2=O)NC1=O)C(C)C | 1171.4% | EC50 [1]: 11.3 nM; IGF-1 Receptor % IGF ([1]; Table 10): 7.7%; IGF-1 Receptor % IGF-1 (in test) [3]: 2.3%
2 |  |  | CC[C@H](C)[C@H](NC(=O)CN)C(=O)N[C@H](C(=O)N[C@@H](CC(=O)O)C(=O)N[C@@H](CCC(=O)O)C(=O)N[C@H]1CSSC[C@@H]2NC(=O)[C@H](CO)NC(=O)[C@H](C)NC(=O)[C@H](Cc3c[nH]cn3)NC(=O)[C@H](CSSC[C@H](NC(=O)[C@H](CC(C)C)NC(=O)[C@H](Cc3c[nH]cn3)NC(=O)[C@H](CCC(=O)O)NC(=O)[C@@H]3CCCN3C(=O)CN)C(=O)NCC(=O)N[C@@H](C)C(=O)N[C@@H](CC(=O)O)C(=O)N[C@@H](CC(C)C)C(=O)N[C@@H](C(C)C)C(=O)N[C@@H](CC(=O)O)C(=O)N[C@@H](C)C(=O)N[C@@H](CC(C)C)C(=O)N[C@@H](Cc3ccc(O)cc3)C(=O)N[C@@H](CC(C)C)C(=O)N[C@@H](C(C)C)C(=O)N[C@H](C(=O)NCC(=O)N[C@@H](CC(=O)O)C(=O)N[C@@H](C)C(=O)NCC(=O)N[C@@H](Cc3ccccc3)C(=O)N[C@@H](Cc3ccc(O)cc3)C(N)=O)CSSC[C@@H](C(=O)N[C@@H](CC(N)=O)C(=O)O)NC(=O)[C@H](Cc3ccc(O)cc3)NC(=O)[C@H](CC[S+](C)[O-])NC(=O)[C@H](CCC(=O)O)NC(=O)[C@H](CC(C)C)NC(=O)[C@H](CCCNC(=N)N)NC(=O)[C@H](CCCNC(=N)N)NC(=O)[C@H](CC(C)C)NC(=O)[C@H](CC(=O)O)NC2=O)NC1=O)C(C)C (stereo partly shown) | 400.7% | 
3 |  |  | CC[C@H](C)[C@H](NC(=O)CN)C(=O)N[C@H](C(=O)N[C@@H](CC(=O)O)C(=O)N[C@@H](CCC(=O)O)C(=O)N[C@H]1CSSC[C@@H]2NC(=O)[C@H](CO)NC(=O)[C@H](CCCNC(=N)N)NC(=O)[C@H](Cc3ccccc3)NC(=O)[C@H](CSSC[C@H](NC(=O)[C@H](CC(C)C)NC(=O)[C@@H](NC(=O)[C@H](CCC(=O)O)NC(=O)[C@@H]3CCCN3C(=O)CN)[C@@H](C)O)C(=O)NCC(=O)N[C@@H](C)C(=O)N[C@@H](CCC(=O)O)C(=O)N[C@@H](CC(C)C)C(=O)N[C@@H](C(C)C)C(=O)N[C@@H](CC(=O)O)C(=O)N[C@@H](C)C(=O)N[C@@H](CC(C)C)C(=O)N[C@@H](Cc3ccc(O)cc3)C(=O)N[C@@H](CC(C)C)C(=O)N[C@@H](C(C)C)C(=O)N[C@H](C(=O)NCC(=O)N[C@@H](CC(=O)O)C(=O)N[C@@H](CCCNC(=N)N)C(=O)NCC(=O)N[C@@H](Cc3ccccc3)C(=O)N[C@@H](Cc3ccc(O)cc3)C(N)=O)CSSC[C@@H](C(=O)N[C@@H](C)C(N)=O)NC(=O)[C@H](Cc3ccc(O)cc3)NC(=O)[C@H](CCSC)NC(=O)[C@H](CCC(=O)O)NC(=O)[C@H](CC(C)C)NC(=O)[C@H](CCCNC(=N)N)NC(=O)[C@H](CCCNC(=N)N)NC(=O)[C@H](CC(C)C)NC(=O)[C@H](CC(=O)O)NC2=O)NC1=O)C(C)C [IGF-1 A:B (E10Y16L17) DPI] |  | IGF-1 Receptor % IGF-1 (in test) [3]: 3.3%
4 |  |  | CC[C@H](C)[C@H](NC(=O)CN)C(=O)N[C@H](C(=O)N[C@@H](CC(=O)O)C(=O)N[C@@H](CCC(=O)O)C(=O)N[C@H]1CSSC[C@@H]2NC(=O)[C@H](CO)NC(=O)[C@H](CCCNC(=N)N)NC(=O)[C@H](Cc3ccccc3)NC(=O)[C@H](CSSC[C@H](NC(=O)[C@H](CC(C)C)NC(=O)[C@H](Cc3c[nH]cn3)NC(=O)[C@H](CCC(=O)O)NC(=O)[C@@H]3CCCN3C(=O)CN)C(=O)NCC(=O)N[C@@H](C)C(=O)N[C@@H](CC(=O)O)C(=O)N[C@@H](CC(C)C)C(=O)N[C@@H](C(C)C)C(=O)N[C@@H](CC(=O)O)C(=O)N[C@@H](C)C(=O)N[C@@H](CC(C)C)C(=O)N[C@@H](Cc3ccc(O)cc3)C(=O)N[C@@H](CC(C)C)C(=O)N[C@@H](C(C)C)C(=O)N[C@H](C(=O)NCC(=O)N[C@@H](CC(=O)O)C(=O)N[C@@H](CCCNC(=N)N)C(=O)NCC(=O)N[C@@H](Cc3ccccc3)C(=O)N[C@@H](Cc3ccc(O)cc3)C(N)=O)CSSC[C@@H](C(=O)N[C@@H](C)C(N)=O)NC(=O)[C@H](Cc3ccc(O)cc3)NC(=O)[C@H](CC[S+](C)[O-])NC(=O)[C@H](CCC(=O)O)NC(=O)[C@H](CC(C)C)NC(=O)[C@H](CCCNC(=N)N)NC(=O)[C@H](CCCNC(=N)N)NC(=O)[C@H](CC(C)C)NC(=O)[C@H](CC(=O)O)NC2=O)NC1=O)C(C)C (stereo partly shown) [IGF-1 A:B (H5D10Y16L17) (S═O)DPI] | 316.0% | 
5 |  |  | CC[C@H](C)[C@H](NC(=O)CN)C(=O)N[C@H](C(=O)N[C@@H](CC(=O)O)C(=O)N[C@@H](CCC(=O)O)C(=O)N[C@H]1CSSC[C@@H]2NC(=O)[C@H](CO)NC(=O)[C@H](CCCNC(=N)N)NC(=O)[C@H](Cc3ccccc3)NC(=O)[C@H](CSSC[C@H](NC(=O)[C@H](CC(C)C)NC(=O)[C@@H](NC(=O)[C@H](CCC(=O)O)NC(=O)[C@@H]3CCCN3C(=O)CN)[C@@H](C)O)C(=O)NCC(=O)N[C@@H](C)C(=O)N[C@@H](CCC(=O)O)C(=O)N[C@@H](CC(C)C)C(=O)N[C@@H](C(C)C)C(=O)N[C@@H](CC(=O)O)C(=O)N[C@@H](C)C(=O)N[C@@H](CC(C)C)C(=O)N[C@@H](CCC(N)=O)C(=O)N[C@@H](Cc3ccccc3)C(=O)N[C@@H](C(C)C)C(=O)N[C@H](C(=O)NCC(=O)N[C@@H](CC(=O)O)C(=O)N[C@@H](CCCNC(=N)N)C(=O)NCC(=O)N[C@@H](Cc3ccccc3)C(=O)N[C@@H](Cc3ccc(O)cc3)C(=O)N[C@@H](Cc3ccccc3)C(=O)N[C@@H](CC(N)=O)C(=O)N[C@@H](CCCCN)C(=O)N3CCC[C@H]3C(=O)N[C@H](C(N)=O)[C@@H](C)O)CSSC[C@@H](C(=O)N[C@@H](C)C(N)=O)NC(=O)[C@H](Cc3ccc(O)cc3)NC(=O)[C@H](CCSC)NC(=O)[C@H](CCC(=O)O)NC(=O)[C@H](CC(C)C)NC(=O)[C@H](CCCNC(=N)N)NC(=O)[C@H](CCCNC(=N)N)NC(=O)[C@H](CC(C)C)NC(=O)[C@H](CC(=O)O)NC2=O)NC1=O)C(C)C [IGF-1 A:B] | 5.8% | Insulin Receptor % native insulin activity (0.6 nM) [2]: 5.8%
6 | 8.08 nM | 2.46 nM | DP20 random: CTP linker sequence randomized; linking peptide PPRPPQSASPPDLSPLSGTPSRPSLS; SEQ ID NO: 69 (listed as Homo sapiens) |  | 
7 | 11.8 nM | 7.44 nM | DP20, S2A: CTP linking peptide wherein the serines have been replaced with alanine (SEQ ID NO: 80) (protein, listed as Homo sapiens) GEEEEEKGPEHLCGAHLVDALYLVCGDRGFYAAAARAPPPALPAPARLPGPADTPILPQKGIVDECCHRSCDLRRLENYCN |  | 
8 | 84.3 nM | 35.4 nM | DP-20, C^0: DP20 structure with the native proinsulin C peptide as the linking peptide (protein) GEEEEEKGPEHLCGAHLVDALYLVCGDRGFYRREAEDLQVGQVELGGGPGAGSLQPLALEGSLQRKGIVDECCHRSCDLRRLENYCN |  | 
9 |  |  | DP20 P to A: CTP linking peptide wherein the prolines have been replaced with alanine (SEQ ID NO: 70) (protein, listed as Homo sapiens) GEEEEEKGPEHLCGAHLVDALYLVCGDRGFYSSSSRAAAASLASASRLAGASDTAILAQKGIVDECCHRSCDLRRLENYCN |  | in vitro phosphorylation activity at the insulin subtype A receptor (result in words) ([4]; FIGS. 21, 23): appreciable activity at the insulin receptor, equivalent to that of native IGF-1
